# From US20200376138A1, “LIPID NANO PARTICLE COMPLEX COMPRISING APTIDE FUSED WITH CELL PENETRATING MATERIALS AND USE SAME” (Korea Advanced Institute of Science and Technology, priority 2019, published 2020)
# Ends that are not written are not given here.
# Columns and labels:
# [1] = tested on: MLE12 cells; assay: Epithelial-to-myofibroblast differentiation, vimentin FACS after TGF-β; type: cell-based
# [2] = tested on: RAW264.7 cells; assay: M2 polarization of IL-10 stimulated macrophages, CD163 FACS; type: cell-based, mouse; conditions: 20 μM, IL-10 stimulation 48 h
# Protocol: To perform FACS analysis, mouse macrophage cell line (RAW264.7) was seeded in a 6-well plate at 2×10^5 cells/well density and incubated overnight for stabilization. In order to induce M2-type polarization, the samples were stimulated with IL-10 for 48 h in a 37° C.-maintained, 5% CO2 incubator. PBS, APTscr-9R(20 μM), and APTstat3-9R(20 μM) were simultaneously accordingly added for co-treatment. After the incubation, the specimens were collected and incubated for 30 min with 10% BSA in PBS to block non-specific binding of antibodies. After blocking, the samples were washed with three changes of 1×PBS for 5 min each. The collected specimens were resuspended in a 1 mL of separation buffer. The cells were collected in the filter tubes with strainer ([…]). After buffer removal, direct immunostaining was performed using phycoerythrin-cojugated CD163 monoclonal primary antibody (Invitrogen, Waltham, Mass., USA) at […] with 90 min incubation at 4° C. Upon the incubation, the cells were once again washed with three changes of 1×PBS for 5 min. […] The samples (20,000 cells) were analyzed using a LSR Fortessa™ high-performance multi-parameter flow cytometer (BD Bioscience, San Jose, Calif., USA) processed with FlowJo software (Tree Star Inc., San Carlos, Calif., USA).
# [3] = tested on: MLE12 lung epithelial cells; assay: Lung epithelial cell uptake (confocal, FACS); type: cell-based; conditions: 20 μM, 4 h
# Protocol: In vitro cell uptake of FITC-APTstat3-9R and FITC-APTstat3-9R-DLNPs was determined by confocal microscopy imaging and FACS analysis. For confocal imaging, MLE12 cells were seeded on sterile cover glass in 12-well plate at 5×10^5 cells/well density followed by overnight incubation. The cells were treated with PBS, FITC-APTstat3-9R (20 μM), or FITC-APTstat3-9R-DLNPs (20 μM) for 4 h. The samples were washed twice with 1×PBS to discard free aptides. Subsequent sample preparation and analysis were described previously in in vitro macrophage polarization analysis section. For FACS experiment, MLE 12 cells were seeded in a 6-well plate at 3×10^5 cells/well density and incubated overnight for stabilization. The samples were treated with PBS, FITC-APTstat3-9R (20 μM), or FITC-APTstat3-9R-DLNPs (20 μM) for 4 h, washed, and collected using trypsin. The following steps were previously detailed in in vitro macrophage polarization analysis.
# [4] = biological target: STAT3 protein (Homo sapiens, UniProt P40763); assay: Binding of the aptide to STAT3 protein; conditions: read-out: affinity of binding to STAT3 protein
# Chain of STAT3 protein (P40763 whole entry, species assumed, the tested form may be a part): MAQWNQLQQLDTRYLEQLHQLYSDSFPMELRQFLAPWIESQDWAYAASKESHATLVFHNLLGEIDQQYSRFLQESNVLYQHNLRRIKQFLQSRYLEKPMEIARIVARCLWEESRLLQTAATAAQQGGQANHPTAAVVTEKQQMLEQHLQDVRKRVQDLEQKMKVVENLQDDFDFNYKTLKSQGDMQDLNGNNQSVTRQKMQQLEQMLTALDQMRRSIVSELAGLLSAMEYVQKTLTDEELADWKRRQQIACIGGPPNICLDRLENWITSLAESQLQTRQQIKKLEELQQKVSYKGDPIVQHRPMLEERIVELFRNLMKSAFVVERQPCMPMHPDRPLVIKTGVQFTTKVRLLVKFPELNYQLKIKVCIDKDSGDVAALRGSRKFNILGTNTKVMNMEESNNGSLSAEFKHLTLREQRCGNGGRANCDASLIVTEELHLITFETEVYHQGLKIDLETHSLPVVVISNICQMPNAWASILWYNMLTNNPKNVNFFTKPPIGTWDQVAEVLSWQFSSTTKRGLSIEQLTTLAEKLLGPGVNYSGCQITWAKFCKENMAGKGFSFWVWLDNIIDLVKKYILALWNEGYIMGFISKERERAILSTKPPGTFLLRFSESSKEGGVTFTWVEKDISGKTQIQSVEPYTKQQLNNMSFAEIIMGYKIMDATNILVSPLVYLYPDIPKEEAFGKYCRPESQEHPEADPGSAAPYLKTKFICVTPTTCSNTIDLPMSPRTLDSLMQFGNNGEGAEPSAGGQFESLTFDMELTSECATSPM
# Protocol: The aptide according to the present invention can be an aptide that specifically binds to STAT3 (signal transducer and activator of transcription 3) protein, and can specifically be composed of the amino acid sequence represented by SEQ. ID. NO: 2. the aptide for STAT3 protein is stable with a size of about 5 kDa, and can bind to STAT3 protein with a high affinity of 200 nM. The aptide for STAT3 protein can inhibit the activation of STAT3 protein by binding to SH2 domain of STAT3 protein and suppressing the phosphorylation. This mechanism may have less effect on an inaccurate target than a conventional JAK inhibitor that inhibits the activation of STAT3 protein using the JAK inhibitory mechanism.
# [5] = tested on: psoriasis animal model; assay: Inhibitory effect on inflammation in imiquimod-induced psoriasis animal model; type: in vivo, mouse; conditions: day 7
# Protocol: The nanoparticle complex prepared in Example 3 was applied on the skin of a psoriasis animal model and the inhibitory effect of the complex on inflammation caused by psoriasis was investigated. First, the hair of the ear of the mouse was removed, and imiquimod was continuously treated at the concentration of 20 mg/cm^2 for 6 days from the next day to induce psoriasis. On the other hand, on the 2nd to 6th day of the treatment of imiquimod, the nanoparticle complex of Example 3 or Comparative Example 3 was applied in a total amount of 100 μg, 50 μg per time. On the day when imiquimod and the treatment drug were treated together, the treatment drug was applied 4 hours before and after the application of imiquimod to prevent the interaction between the drugs. At this time, the groups treated with Vaseline and DW were used as the negative control, and the group applied with clobetasol propionate (CLQ) at the concentration of 20 mg/cm^2 was used as the positive control. The application of the nanoparticle complex was completed by day 6, and the inhibitory effect on inflammation was confirmed using the animal model on day 7 (FIG. 14). Particularly, the inhibitory effect on inflammation was confirmed by measuring the thickness of the ear of the animal model, the punch biopsy weight, tissue H&E test, ELISA after tissue crushing, and the extracted spleen weight. […]
molecule,measurement,setting,value
"APTscr-9R: control aptide, SEQ ID NO:9; b173 calls it a lipid nanoparticle complex prepared as Example 3 with this aptide (HASDRNGSWTWENGKWTWKGLHEQSD; also: part of a lipid nanoparticle complex) [reference compound]",vimentin marker level after stimulation,[1],vastly increased
HGFQWPGSWTWENGKWTWKGAYQFLKGGGGSRRRRRRRRR (Aptide against STAT3 fused with nona-arginine) [APTstat3-9R],increase in CD163 level (M2 macrophage specific marker),[2],not upregulated
same,uptake into MLE 12 lung epithelial cells (confocal images),[3],uptaken
same,vimentin marker level after stimulation,[1],fairly decreased
same,reduction of vimentin level compared to PBS treated group,[1]; TGF-β stimulation,approximately 29%
HGFQWPGSWTWENGKWTWKGAYQFLK [aptide for STAT3 protein],Kd,[4],200 nM
"CCC(=O)O[C@]1(C(=O)CCl)[C@@H](C)C[C@H]2[C@@H]3CCC4=CC(=O)C=C[C@]4(C)[C@@]3(F)[C@@H](O)C[C@@]21C [CLQ, clobetasol propionate]",size and weight of the spleen,[5],shrivelled
